This is an account of results in patent publication US6528534B2 (Millennium Pharmaceuticals, Inc., priority 1995, dated 2003).

Data set [1] deals with T1, GPIIb-IIIa (Homo sapiens, UniProt P05106+P08514).
T1 construct: Purified platelet GPIIb-IIIa receptor was prepared as described by Fitzgerald; from tissue; host or cells: platelets
Nature of the data set: ELISA IIb-IIIa assay (fibrinogen binding to immobilized GPIIb-IIIa). The following applies: inhibition of biotinylated fibrinogen binding to plate-coated purified platelet GPIIb-IIIa receptor. The protocol:
No. 1—The ELISA IIb-IIIa Assay:
In the following assay, GPIIb-IIIa is prepared in purified form, by a method such as described by Fitzgerald, L. A., et al., Anal Biochem (1985) 151:169-177, (the disclosure of which is incorporated herein by reference). GPIIb-IIIa is coated onto microtiter plates. The coated support is then contacted with fibrinogen and with the test material (e.g., compounds of Formula I) and incubated for a sufficient time to permit maximal binding of fibrinogen to the immobilized GPIIb-IIIa. Fibrinogen is typically provided at a concentration of about 5-50 nM and the test material can, if desired, be added at a series of dilution. Typical incubations are 2 to 4 hours at 25° C., the time and temperature being interdependent.
After incubation, the solution containing the fibrinogen and test material is removed and the level of binding of fibrinogen measured by quantitating bound fibrinogen to GPIIb-IIIa. Any suitable means of detection may be used, but it is convenient to employ labeled fibrinogen, for example using biotinylated labels. Such methods are well known in the art.
A. Description of Assays—Plate Assays
Purified platelet GPIIb-IIIa receptor was prepared as described by Fitzgerald, L. A., et al., Anal Biochem (1985) 151:169-177 (1985). Vitronectin receptor was prepared as described by Smith, J. W., J. Biol Chem (1988) 263:18726-18731. After purification, the receptors were stored in 0.1% Triton X-100 at 0.1-1.0 mg/ml.
The receptors were coated to the wells of 96-well flat-bottom ELISA plates (Linbro EIA-Plus microtiter plate, Flow Laboratories) after diluting 1:200 with a solution of 20 mM Tris-HCl, 150 mM NaCl, 1 mM CaCl2, pH 7.4, to reduce the Triton X-100 concentration to below its critical micellar concentration and adding an aliquot of 100 ul to each well. The wells were all allowed to incubate overnight at 4° C., and then aspirated to dryness. Additional sites were blocked by the addition of bovine serum albumin (BSA) at 35 mg/ml in the above buffer for two hours at 30° C. to prevent nonspecific binding. The wells were then washed once with binding buffer ([…] Tris-HCl, 100 mM NaCl 2 mM CaCl2, 1 mg/ml BSA).
The corresponding ligands (fibrinogen, von Willebrand Factor, or vitronectin) were conjugated to biotin using commercially available reagents and standard protocols. The labeled ligands were added to the receptor-coated wells at final concentration of 10 nM (100 ul/well) and incubated for 3 hours at 25° C. in the presence or absence of the test samples. After incubation, the wells are aspirated to dryness and bound ligand is quantitated.
The bound protein is detected by the addition of antibiotin antibody conjugated to alkaline phosphatase followed by addition of substrate (p-nitrophenyl phosphate), and determination of the optical density of each well at […]. Decreased color development is observed in wells incubated with test samples which inhibit binding of ligand to receptor.
For orientation: ELISA stands for enzyme-linked immunosorbent assay.

The test system of data set [2] is human platelet-rich plasma. Nature of the data set: Platelet aggregation assay, Aggregation-Human PRP/ADP. The following applies: inhibition of ADP-induced aggregation of human platelet-rich plasma. The class given is cell-based. The protocol: No. 2—The Platelet Aggregation Assay
In addition to the ELISA IIb-IIIa assay previously described the Aggregation-Human PRP/ADP Assay is useful for evaluating therapeutic compounds.
Platelet-rich plasma was prepared from healthy human volunteers for use in determining inhibition of platelet aggregation by the compounds. Blood was collected via a 21-gauge butterfly cannula, using a two-syringe technique into 1/10 volume of 3.8% trisodium citrate.
Platelet-rich plasma was prepared at room temperature by centrifugation of the citrated whole blood at 100×g for twelve minutes. The platelet rich plasma contained approximately 200-400,000 platelets/μl.
Platelet-poor plasma was prepared by centrifugation of citrated whole blood at 12,000×g for 2 minutes.
Platelet aggregation was assayed in a 4-channel platelet aggregatiob profiler (PAP-4, Biodata, Hatboro, Pa.) according to the manufacturers directions. Inhibition of platelet aggregation was studied by adding varying amounts of adenosine diphosphate (ADP) to stirred human platelet-rich plasma. Specifically, the human platelet-rich plasma was incubated with the compound being tested for 1 minute at 37° C. prior to the addition of a variety of aggregating agents most often ADP 5 μM, but also 1 μg/ml collagen, 1 μM U46619 and 0.3 μM platelet activating factor.

T1 sequence (P08514 32-887 limits assumed): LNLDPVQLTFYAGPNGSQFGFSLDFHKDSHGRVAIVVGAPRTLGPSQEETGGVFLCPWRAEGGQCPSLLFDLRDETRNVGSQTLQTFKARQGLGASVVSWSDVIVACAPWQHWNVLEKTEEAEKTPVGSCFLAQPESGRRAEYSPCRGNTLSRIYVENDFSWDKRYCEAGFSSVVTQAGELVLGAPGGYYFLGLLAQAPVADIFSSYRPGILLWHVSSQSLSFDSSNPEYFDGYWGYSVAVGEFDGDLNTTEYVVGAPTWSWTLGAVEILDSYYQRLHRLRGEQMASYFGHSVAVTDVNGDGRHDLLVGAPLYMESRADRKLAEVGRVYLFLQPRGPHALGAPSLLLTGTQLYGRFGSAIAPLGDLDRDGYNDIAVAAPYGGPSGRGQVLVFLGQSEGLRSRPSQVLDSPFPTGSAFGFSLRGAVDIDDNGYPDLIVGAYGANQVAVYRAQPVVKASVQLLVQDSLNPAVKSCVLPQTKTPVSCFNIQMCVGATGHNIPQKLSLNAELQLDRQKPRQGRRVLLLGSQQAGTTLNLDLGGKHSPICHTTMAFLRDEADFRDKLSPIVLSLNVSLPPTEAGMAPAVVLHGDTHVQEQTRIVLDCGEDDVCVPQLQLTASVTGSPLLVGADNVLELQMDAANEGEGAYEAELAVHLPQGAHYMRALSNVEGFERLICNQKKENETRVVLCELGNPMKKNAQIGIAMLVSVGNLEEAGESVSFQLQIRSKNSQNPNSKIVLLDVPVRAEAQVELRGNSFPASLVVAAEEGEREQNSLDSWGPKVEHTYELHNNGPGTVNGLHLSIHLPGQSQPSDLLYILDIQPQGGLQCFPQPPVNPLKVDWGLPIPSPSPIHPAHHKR
T1 sequence (P08514 891-1039 limits assumed): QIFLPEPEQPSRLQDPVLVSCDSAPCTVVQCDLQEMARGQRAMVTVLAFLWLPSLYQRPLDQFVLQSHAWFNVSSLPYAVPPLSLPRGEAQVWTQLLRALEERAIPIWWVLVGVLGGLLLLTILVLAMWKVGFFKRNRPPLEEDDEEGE
T1 sequence (P05106 27-788): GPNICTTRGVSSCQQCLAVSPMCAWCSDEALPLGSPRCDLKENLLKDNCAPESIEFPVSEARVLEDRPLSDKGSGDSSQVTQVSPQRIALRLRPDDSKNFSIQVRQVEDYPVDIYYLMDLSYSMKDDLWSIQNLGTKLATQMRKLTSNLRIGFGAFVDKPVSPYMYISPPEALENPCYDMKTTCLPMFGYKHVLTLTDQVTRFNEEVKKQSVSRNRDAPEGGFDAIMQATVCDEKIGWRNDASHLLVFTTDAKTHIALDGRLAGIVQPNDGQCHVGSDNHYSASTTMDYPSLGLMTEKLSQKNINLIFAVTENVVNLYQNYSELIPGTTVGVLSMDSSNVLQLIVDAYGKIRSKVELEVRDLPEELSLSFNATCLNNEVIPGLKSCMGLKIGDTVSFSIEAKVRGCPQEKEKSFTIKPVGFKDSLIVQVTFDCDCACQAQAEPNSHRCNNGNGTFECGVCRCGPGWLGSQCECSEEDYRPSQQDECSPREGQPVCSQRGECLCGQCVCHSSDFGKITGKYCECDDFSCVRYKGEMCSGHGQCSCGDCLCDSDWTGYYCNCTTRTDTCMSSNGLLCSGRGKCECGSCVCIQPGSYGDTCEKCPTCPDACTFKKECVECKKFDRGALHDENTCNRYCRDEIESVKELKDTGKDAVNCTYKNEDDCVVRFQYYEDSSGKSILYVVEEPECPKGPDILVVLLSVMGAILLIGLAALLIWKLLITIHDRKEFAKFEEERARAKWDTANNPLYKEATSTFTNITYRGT

`N=C(N)c1ccc(CC(=O)NC2CCC3(CC2)CN(CC(=O)O)C(=O)O3)cc1` (stereo not drawn) [Example 35, (8-(2-(4-(Aminoiminomethyl)phenyl)acetamido)-2-oxo-1-oxa-3-aza-spiro[4.5]dec-3-yl)acetic Acid] had a melting point of 193 to 196 °C. Also, the IC50 in data set [1] is 0.19 µM. Besides, in data set [2], the IC50 came out at 0.77 µM.
Turning to `N=C(N)c1ccc(C(=O)N2CCC3(CC2)CN(CC(=O)O)C(=O)O3)cc1` [Example 30, (8-(4-(Aminoiminomethyl)benzoyl)-2-oxo-1-oxa-3,8-diaza-spiro[4.5]dec-3-yl)acetic Acid], the melting point fell in the range of 157 to 159 °C. For the same compound, the IC50 in data set [1] came to 29 µM. For the same compound, the IC50 in data set [2] was 80 µM.

The IC50 is the concentration that inhibits the measured activity by half. Read a low IC50 as greater potency. The term melting point denotes the temperature of the solid-liquid transition.
